These results are taken from PubChem BioAssay AID1914 (Broad Institute, 2009).

SMILES strings stand for the structures. Several values for one entry are separate records, joined by “and”; a condition that tells them apart may be missing. Identical values can stand only once. Results filed as inconclusive are left out. Activity calls are given as the source filed them.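 How the source made its calls: active means Compounds whose fitted IC50 for cell-normalized streptokinase activity falls within a set log distance above the top dose; inactive means IC50 further above the top dose than that limit.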

The assay concerns the target S. pyogenes M1 GAS, streptokinase activity/viability, OD405, 6 h. Put plainly: S. pyogenes streptokinase expression inhibitors, potency, dose response, plasminogen activation absorbance, OD405 (AID 1914).

One may read the IC50 as the concentration at which inhibition is half-maximal. Turning to `Cc1ccc(C(O)(C(=O)NNc2ccc3ccccc3n2)c2ccc(C)cc2)cc1`, the IC50 was > 15 µM (inactive).
As for `CN(C)c1ccnc2c[cH-]cc12.[Fe].c1ccc(-[c-]2[c-](-c3ccccc3)[c-](-c3ccccc3)[c-](-c3ccccc3)[c-]2-c2ccccc2)cc1` (stereo unspecified), the IC50 was 2.11 µM and 2.6 µM.
Next, `CNC(CC(C)C)C(=O)NC1C(=O)NC(CC(N)=O)C(=O)NC2C(=O)NC3C(=O)NC(C(=O)NC(C(=O)O)c4cc(O)cc(O)c4-c4cc3ccc4O)C(O)c3ccc(c(Cl)c3)Oc3cc2cc(c3OC2OC(CO)C(O)C(O)C2OC2CC(C)(N)C(O)C(C)O2)Oc2ccc(cc2Cl)C1O` (stereo unspecified): > 15 µM (inactive); `CCN1/C(=C\C=C\C2=[N+](CC)c3ccccc3C2(C)C)C(C)(C)c2ccccc21`: 15.6 µM; `CCCCCCCCCCCCCCCCn1cc[n+](C)c1`: > 15 µM (inactive).
For `Cc1ccc(C[n+]2c(-c3ccc(C)cc3)cc(-c3ccc(C)cc3)cc2-c2ccc(C)cc2)cc1` the value was 3.61 µM.
